# Results taken from US5171882A, “Leukotriene antagonists” (Eli Lilly and Company, priority 1990, dated 1992).
# Read-outs that look alike come from different tables or passages of the source.
# Target: T1, specific receptor on the membrane of human neutrophils (leukotriene B4) (Homo sapiens, UniProt Q15722)
# T1 construct: Freshly-prepared buffy coat layers from two individuals were obtained from a local blood donor center; endogenous in cells; host or cells: intact human peripheral blood neutrophils from buffy coats of two donors
# Assay: Inhibition of Binding of ^3 H-LTB4 to Peripheral Human Neutrophils
# Details: for inhibition at 10 µM / inhibition at 1 µM / inhibition at 0.1 µM: read-out: LTB4 Binding Inhibition; for inhibition at 0.1 µM: drug concentration 10^-7 M
# Experimental: Cells used in the assay were isolated by standard techniques of centrifugation on Ficoll-Hypaque, dextran 70 sedimentation and hypotonic lysis. The following procedure was used. Freshly-prepared buffy coat layers from two individuals were obtained from a local blood donor center. The cells were mixed and diluted to 484 ml with phosphate buffered saline containing heparin (10 units/ml) and heat-inactivated calf serum (5%). This was divided into 20 ml aliquots and the aliquots layered on top of Ficoll-Paque (12 ml). The material was then centrifuged at 500 g for 40 minutes at room temperature. The resulting upper layer of platelets and mononuclear cells was discarded. The lower layer containing erythrocytes and neutrophils was retained. Buffer was added (1 ml per 4 ml of lower layer) and the suspension mixed. For each milliliter of this mixture, 0.33 ml of 6% Macrodex was added. After stirring, the cells were allowed to sediment for 1 hour at 37° C. The resulting erythrocyte pellet was discarded and the neutrophil enriched supernatant fluid centrifuged at 500 g for 10 minutes at 4° C. Erythrocytes still present in this cell pellet were lysed by incubating the cells with 5-8 ml ice-cold distilled water for 30-45 seconds. Subsequently, the volume was made up to 50 ml by addition of ice-cold buffer and the cells resuspended. The suspension was then centrifuged at 300 g for 10 minutes at 4° C. The cells were finally resuspended at a cell density of 2×10^7 cells/ml in the assay buffer This buffer consisted of Hanks' balanced salt solution and 0.1% ovalbumin (pH 7.3).
# The amount of bound ^3 H-LTB4 was then measured and compared with the amount bound in the absence of test compound. The assay was carried out in microcentrifuge tubes by adding first 10 μl test compound dissolved in DMSO, followed by adding 20 μl ^3 H-LTB4 diluted in assay buffer, and finally adding 500 μl of the cell suspension. At the end of the 10 minutes incubation, 300 μl of a mixture of dibutyl and dinonyl phthalate (7:2) were added and the tubes centrifuged for 2 minutes in a microcentrifuge. The radioactivity bound to the cell pellet was measured by scintillation spectroscopy. Appropriate corrections for nonspecific bonding of ^3 H-LTB4 were made.
# [1] = drug concentration 10^-5 M, 0.1-0.2 nM ^3 H-LTB4, 10 minutes at 4° C
# [2] = drug concentration 10^-6 M, 0.1-0.2 nM ^3 H-LTB4, 10 minutes at 4° C
# [3] = 0.1-0.2 nM ^3 H-LTB4, 10 minutes at 4° C
# T1 sequence (Q15722 whole entry): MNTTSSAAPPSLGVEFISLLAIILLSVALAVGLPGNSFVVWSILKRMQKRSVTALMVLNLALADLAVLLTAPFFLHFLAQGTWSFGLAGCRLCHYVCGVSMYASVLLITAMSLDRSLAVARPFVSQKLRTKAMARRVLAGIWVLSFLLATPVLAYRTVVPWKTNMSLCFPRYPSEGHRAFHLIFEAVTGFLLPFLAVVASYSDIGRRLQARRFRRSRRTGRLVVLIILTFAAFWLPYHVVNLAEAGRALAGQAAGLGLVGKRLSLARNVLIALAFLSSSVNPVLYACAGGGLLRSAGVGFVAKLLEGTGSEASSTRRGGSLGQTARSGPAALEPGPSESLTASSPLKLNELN
SMILES,inhibition at 10 µM [1] [%],inhibition at 1 µM [2] [%],inhibition at 0.1 µM [3] [%],further results
"COc1cccc(C=CCCCCOc2ccc(C(=O)c3cccc(C(=O)O)c3)cc2CCC(=O)O)c1 [Example 84, 5-(3-Carboxybenzoyl)-2-{[6-(3-methoxyphenyl)-5-hexenyl]oxy}benzenepropanoic acid]",99,91,49,–
"CSc1ccc(C=CCCCCOc2ccc(C(=O)c3cccc(C(=O)O)c3)cc2CCC(=O)O)cc1 [Example 83, 5-(3-Carboxybenzoyl)-2-{[6-(4-methylmercaptophenyl)-5-hexenyl]oxy}benzenepropanoic acid]",103,79,18,–
"O=C(O)CCc1cc(C(=O)c2cccc(C(=O)O)c2)ccc1OCCCCCCc1ccc(F)cc1 [Example 82, 5-(3-Carboxybenzoyl)-2-{[6-(4-fluorophenyl)hexyl]oxy}benzenepropanoic acid]",104,81,22,–
"CCCCCCCCCCOc1ccc(C(=O)c2ccccc2C(=O)O)cc1CC(=O)O [Example 35, 5-(2-Carboxybenzoyl)-2-(decyloxy)benzeneacetic acid]",–,–,–,LTB4 Binding Inhibition [1]: 53 percent inhibition; LTB4 Binding Inhibition [2]: 2 percent inhibition
"CS(=O)(=O)c1ccc(C=CCCCCOc2ccc(C(=O)c3cccc(C(=O)O)c3)cc2CCC(=O)O)cc1 [Example 91, 5-(3-Carboxybenzoyl)-2-{[6-(4-methylsulfonylphenyl)-5-hexenyl]oxy}benzenepropanoic acid]",98,88,60,–
"COc1ccccc1CCCCCCOc1ccc(C(=O)c2cccc(C(=O)O)c2)cc1CCC(=O)O [Example 87, 5-(3-Carboxybenzoyl)-2-{[6-(2-methoxyphenyl)hexyl]oxy}benzenepropanoic acid]",–,91,34,inhibition at 10 µM: 100%
"CC(=O)c1ccc(CCCCCCOc2ccc(C(=O)c3cccc(C(=O)O)c3)cc2CCC(=O)O)cc1 [Example 101, 2-{[6-(4-Acetylphenyl)hexyl]oxy}-5-(3-carboxybenzoyl]benzenepropanoic acid]",–,88,46,–
"COc1ccc(CCCCCCOc2ccc(C(=O)c3cccc(C(=O)O)c3)cc2CCC(=O)O)cc1 [Example 80, 5-(3-Carboxybenzoyl)-2-{[6-(4-methoxyphenyl)-hexyl]oxy}benzenepropanoicacid]",105,98,68,–
"COc1ccccc1C=CCCCCOc1ccc(C(=O)c2cccc(C(=O)O)c2)cc1CCC(=O)O [Example 85, 5-(3-Carboxybenzoyl)-2-{[6-(2-methoxyphenyl)-5-hexenyl]oxy}benzenepropanoic acid]",101,–,86,inhibition at 1 µM: 97%
"O=C(O)CCc1cc(C(=O)c2cccc(C(=O)O)c2)ccc1OCCCCS(=O)(=O)c1ccccc1 [Example 78, 5-(3-Carboxybenzoyl)-2-[4-(phenylsulfonyl)-butoxy]benzenepropanoic acid]",18,4,–,–
O=C(O)CCc1cc(NC(=O)c2cccc(C(=O)O)c2)ccc1OCCCCCCc1ccccc1 [Example 102],98,72,18,–
"O=C(O)CCc1cc(C(=O)c2cccc(C(=O)O)c2)ccc1OCCCCC=Cc1ccccc1 [Example 76, 5-(3-Carboxybenzoyl)-2-[6-(phenyl-5-hexenyl)oxy]benzenepropanoic acid]",96,91,36,–
"CCCCCCCCCCOc1ccc(C(=O)c2cccc(C#N)c2)cc1CC#N [Example 12, 5-(3-Cyanobenzoyl)-2-(decyloxy)benzeneacetonitrile]",3,-1,–,–
"O=C(O)CCc1cc(C(=O)c2cccc(C(=O)O)c2)ccc1OCCCC[S+]([O-])c1ccccc1 (stereo not drawn) [Example 77, 5-(3-Carboxybenzoyl)-2-[4-(phenylsulfinyl)-butoxy]benzenepropanoic acid]",22,8,–,–
"CCCCCCCCCCOc1ccc(C(=O)c2cccc(-c3nnn[nH]3)c2)cc1Cc1nnn[nH]1 [Example 17, [4-(Decyloxy)-3-(1H-tetrazol-5-ylmethyl)phenyl][3-(1H-tetrazol-5-yl)phenyl]methanone]",81,20,–,–
"COc1cccc(CCCCCCOc2ccc(C(=O)c3cccc(C(=O)O)c3)cc2CCC(=O)O)c1 [Example 86, 5-(3-Carboxybenzoyl)-2-{[6-(3-methoxyphenyl)hexyl]oxy}benzenepropanoic acid]",95,88,46,–

# Further lines, with some results ahead:
inhibition at 10 µM [1] [%],inhibition at 1 µM [2] [%],inhibition at 0.1 µM [3] [%],SMILES,further results
19,-6,–,"CCCCCCCCCCOc1ccc(C(=O)c2ccccc2C(=O)O)cc1CC(=O)OCC [Example 32, 5-(2-Carboxybenzoyl)-2-(decyloxy)benzeneacetic acid, ethyl ester]",–
-5,-1,–,"CCCCCCCCCCOc1ccc(C(=O)c2cccc(C(=O)OCC)c2)cc1CC(=O)OCC [Example 4, 2-(Decyloxy)-5-[3-(ethoxycarbonyl)benzoyl]benzeneacetic acid, ethyl ester]",–
-13,1,–,"CCCCCCCCCCOc1ccc(C(=O)c2cccc(-c3nnn[nH]3)c2)cc1CC(=O)OCC [Example 15, 2-(Decyloxy)-5-[3-(1H-tetrazol-5-yl)benzoyl]benzeneacetic acid, ethyl ester]",–
88,41,–,"CCCCCCCCCCOc1ccc(Cc2cccc(C(=O)O)c2)cc1CCC(=O)O [Example 50, 5-[(3-Carboxyphenyl)methyl]-2-(decyloxy)benzenepropanoic acid]",–
-14,-10,–,"CCCCCCCCCCOc1ccc(C(O)c2cccc(C(=O)OCC)c2)cc1CC(=O)OCC (stereo not drawn) [Example 40, 2-(Decyloxy)-5-{[3-(ethoxycarbonyl)phenyl]hxdroxymethyl}benzeneacetic acid, ethyl ester]",–
63,10,–,"CCCCCCCCCCCCCCOc1ccc(C(=O)c2cccc(C(=O)O)c2)cc1CC(=O)O [Example 26, 5-(3-Carboxybenzoyl)-2-(tetradecyloxy)benzeneacetic acid]",–
41,11,–,"CCCCCCCCOc1ccc(C(O)c2cccc(C(=O)O)c2)cc1CC(=O)O (stereo not drawn) [Example 44, 5-[(3-Carboxyphenyl)hydroxymethyl]-2-(octyloxy)benzeneacetic acid]",–
80,18,–,"CCCCCCCCCCCCOc1ccc(C(=O)c2cccc(C(=O)O)c2)cc1CC(=O)O [Example 27, 5-(3-Carboxybenzoyl)-2-(dodecyloxy)benzeneacetic acid]",–
-11,14,–,"CCCCCCCCCCOc1ccc(C(=O)c2cccc(C(=O)OCC)c2)cc1Cc1nnn[nH]1 [Example 2, 3-[4-(Decyloxy)-3-(1H-tetrazol-5-ylmethyl)-benzoyl]benzoic acid, ethyl ester]",–
